ChEMBL document CHEMBL3826932, “An orally available tyrosine kinase ALK and RET dual inhibitor bearing the tetracyclic benzo[b]carbazolone core” (Eur J Med Chem, 2016)
Values belong to the compound of their own block, whether it stands above or below them. Active and inactive are the calls of the source. The calls are words filed in the database; no cut-off is given here.

Tests used:
cells [1] = conditions: Homo sapiens, SUP-M2, 72 h
Description: Antiproliferative activity against human SUP-M2 cells after 72 hrs by SRB/CCK-8 assay

cells [2] = conditions: Mus musculus, NIH3T3, 72 h
Description: Antiproliferative activity against mouse NIH/3T3 cells expressing EML4-ALK L1196 mutant after 72 hrs by SRB/CCK-8 assay

cells [3] = conditions: Homo sapiens, NCI-H3122, 72 h
Description: Antiproliferative activity against human NCI-H3122 cells after 72 hrs by SRB/CCK-8 assay

NIH3T3 [4] = experiment: Antitumor activity against mouse NIH/3T3 cells expressing EML4-ALK L1196M mutant xenografted in nude mouse assessed as partial tumor regression at 50 mg/kg, po qd administered for 10 days; format: functional, organism-based
cells [5] = conditions: Homo sapiens, KARPAS-299, 72 h
Description: Antiproliferative activity against human KARPAS299 cells after 72 hrs by SRB/CCK-8 assay

animal or person [6] = conditions: Mus musculus, NIH3T3, po, 240 h, read-out: TGI
Description: Antitumor activity against mouse NIH/3T3 cells expressing wild type EML4-ALK xenografted in nude mouse assessed as tumor growth inhibition at 50 mg/kg, po qd administered for 10 days

cells [7] = conditions: Homo sapiens, SU-DHL-1, 72 h
Description: Antiproliferative activity against human SU-DHL1 cells after 72 hrs by SRB/CCK-8 assay

NIH3T3 [8] = experiment: Antitumor activity against mouse NIH/3T3 cells expressing EML4-ALK L1196M mutant xenografted in nude mouse assessed as tumor stasis at 50 mg/kg, po qd administered for 10 days; format: functional, organism-based
cells [9] = conditions: Mus musculus, NIH3T3, 72 h; remark: listed apart in the source
Description: Antiproliferative activity against mouse NIH/3T3 cells expressing wild type EML4-ALK after 72 hrs by SRB/CCK-8 assay

animal or person [10] = conditions: Mus musculus, NIH3T3, po, 240 h, read-out: TGI; remark: listed apart in the source
Description: Antitumor activity against mouse NIH/3T3 cells expressing EML4-ALK L1196M mutant xenografted in nude mouse assessed as tumor growth inhibition at 50 mg/kg, po qd administered for 10 days

NIH3T3 [11] = experiment: Antitumor activity against mouse NIH/3T3 cells expressing EML4-ALK L1196M mutant xenografted in nude mouse assessed as partial tumor regression at 40 mg/kg, po qd administered for 10 days; format: functional, organism-based
NIH3T3 [12] = experiment: Antitumor activity against mouse NIH/3T3 cells expressing wild type EML4-ALK xenografted in nude mouse assessed as tumor stasis at 20 to 40 mg/kg, po qd administered for 10 days; format: functional, organism-based
[13] = biological target: Tyrosine-protein kinase ABL1 (Mus musculus, UniProt P00520); experiment: Inhibition of N-terminal His6-tagged recombinant mouse ABL (27 to 1123 residues) expressed in insect Sf21 cells using poly(Glu,Tyr)4:1 as substrate incubated for 60 mins by ELISA
[14] = biological target: Fibroblast growth factor receptor 1 (Homo sapiens, UniProt P11362); experiment: Inhibition of N-terminal GST-tagged recombinant human FGFR1 (456 to 765 residues) expressed in insect Sf21 cells using poly(Glu,Tyr)4:1 as substrate incubated for 60 mins by ELISA
[15] = biological target: T1, Proto-oncogene tyrosine-protein kinase receptor Ret (Homo sapiens, UniProt P07949); experiment: biochemical
T1 sequence (P07949 whole entry): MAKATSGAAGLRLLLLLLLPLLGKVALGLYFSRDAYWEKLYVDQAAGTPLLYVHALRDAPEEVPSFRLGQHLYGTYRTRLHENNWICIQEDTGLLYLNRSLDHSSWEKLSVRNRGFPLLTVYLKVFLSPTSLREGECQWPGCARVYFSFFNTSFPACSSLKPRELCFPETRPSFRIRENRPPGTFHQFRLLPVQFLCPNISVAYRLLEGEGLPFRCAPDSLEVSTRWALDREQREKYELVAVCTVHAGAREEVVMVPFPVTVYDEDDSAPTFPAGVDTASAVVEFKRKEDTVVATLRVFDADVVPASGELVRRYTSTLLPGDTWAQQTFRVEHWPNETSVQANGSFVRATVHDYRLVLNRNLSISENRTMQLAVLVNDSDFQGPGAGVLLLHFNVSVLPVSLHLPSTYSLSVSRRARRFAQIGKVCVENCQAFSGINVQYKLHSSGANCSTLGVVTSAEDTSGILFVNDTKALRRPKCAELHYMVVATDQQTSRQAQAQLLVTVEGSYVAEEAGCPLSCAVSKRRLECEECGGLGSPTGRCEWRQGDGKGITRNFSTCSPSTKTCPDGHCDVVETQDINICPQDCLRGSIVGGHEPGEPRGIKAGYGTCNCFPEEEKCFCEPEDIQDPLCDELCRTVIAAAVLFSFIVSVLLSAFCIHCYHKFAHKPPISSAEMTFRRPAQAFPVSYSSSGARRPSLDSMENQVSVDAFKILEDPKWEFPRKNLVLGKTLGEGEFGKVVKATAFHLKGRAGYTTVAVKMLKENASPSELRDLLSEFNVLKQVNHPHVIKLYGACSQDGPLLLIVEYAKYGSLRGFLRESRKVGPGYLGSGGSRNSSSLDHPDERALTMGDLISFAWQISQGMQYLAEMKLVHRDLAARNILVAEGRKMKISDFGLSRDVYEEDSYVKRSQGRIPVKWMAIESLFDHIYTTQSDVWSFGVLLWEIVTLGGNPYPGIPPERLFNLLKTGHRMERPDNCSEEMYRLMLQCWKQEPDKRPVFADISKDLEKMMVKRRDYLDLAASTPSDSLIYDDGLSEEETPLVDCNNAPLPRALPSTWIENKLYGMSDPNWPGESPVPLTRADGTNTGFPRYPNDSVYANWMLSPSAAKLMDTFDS

[16] = biological target: Platelet-derived growth factor receptor alpha (Homo sapiens, UniProt P16234); experiment: Inhibition of N-terminal His6-tagged recombinant human PDGFRalpha (550 residues) expressed in insect Sf21 cells using poly(Glu,Tyr)4:1 as substrate incubated for 60 mins by ELISA
Sequence of Platelet-derived growth factor receptor alpha (P16234 whole entry): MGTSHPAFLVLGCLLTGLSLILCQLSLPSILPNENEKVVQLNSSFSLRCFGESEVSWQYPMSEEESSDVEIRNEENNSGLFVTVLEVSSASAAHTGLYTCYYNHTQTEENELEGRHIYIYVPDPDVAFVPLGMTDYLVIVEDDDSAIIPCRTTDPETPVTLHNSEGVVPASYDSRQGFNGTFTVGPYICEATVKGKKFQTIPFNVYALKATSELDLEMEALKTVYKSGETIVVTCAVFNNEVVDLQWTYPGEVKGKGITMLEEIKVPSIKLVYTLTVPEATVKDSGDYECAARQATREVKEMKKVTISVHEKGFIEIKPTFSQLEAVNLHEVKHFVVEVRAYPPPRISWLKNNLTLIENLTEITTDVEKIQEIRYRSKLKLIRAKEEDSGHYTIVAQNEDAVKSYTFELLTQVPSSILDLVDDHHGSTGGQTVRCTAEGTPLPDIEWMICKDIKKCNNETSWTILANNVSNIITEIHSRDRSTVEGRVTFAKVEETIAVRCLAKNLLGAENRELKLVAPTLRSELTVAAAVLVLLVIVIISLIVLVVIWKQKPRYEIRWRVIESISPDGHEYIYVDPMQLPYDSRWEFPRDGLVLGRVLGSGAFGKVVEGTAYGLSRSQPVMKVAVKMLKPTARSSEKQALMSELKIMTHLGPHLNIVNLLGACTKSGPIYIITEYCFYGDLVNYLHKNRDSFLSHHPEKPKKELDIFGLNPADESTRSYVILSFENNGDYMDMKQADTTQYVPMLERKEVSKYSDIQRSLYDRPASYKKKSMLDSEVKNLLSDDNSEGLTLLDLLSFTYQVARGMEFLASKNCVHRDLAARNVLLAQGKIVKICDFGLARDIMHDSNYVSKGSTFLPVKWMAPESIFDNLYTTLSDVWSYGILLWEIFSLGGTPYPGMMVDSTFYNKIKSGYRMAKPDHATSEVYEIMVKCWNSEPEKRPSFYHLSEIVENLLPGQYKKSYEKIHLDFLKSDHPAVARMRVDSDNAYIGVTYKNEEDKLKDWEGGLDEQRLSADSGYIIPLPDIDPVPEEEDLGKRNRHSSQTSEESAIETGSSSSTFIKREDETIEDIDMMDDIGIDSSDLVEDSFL

[17] = biological target: Insulin-like growth factor 1 receptor (Homo sapiens, UniProt P08069); experiment: Inhibition of N-terminal His6-tagged recombinant human IGF-1R (959 residues) expressed in insect Sf21 cells using poly(Glu,Tyr)4:1 as substrate incubated for 60 mins by ELISA
[18] = biological target: Epidermal growth factor receptor (Homo sapiens, UniProt P00533, L858R/T790M); experiment: Inhibition of N-terminal GST-tagged recombinant human EGFR T790M/L858R double mutant (696 residues) expressed in insect Sf21 cells using poly(Glu,Tyr)4:1 as substrate incubated for 60 mins by ELISA
[19] = biological target: Receptor tyrosine-protein kinase erbB-2 (Homo sapiens, UniProt P04626); experiment: Inhibition of human ErbB2 using poly(Glu,Tyr)4:1 as substrate incubated for 60 mins by ELISA
Sequence of Receptor tyrosine-protein kinase erbB-2 (P04626 whole entry): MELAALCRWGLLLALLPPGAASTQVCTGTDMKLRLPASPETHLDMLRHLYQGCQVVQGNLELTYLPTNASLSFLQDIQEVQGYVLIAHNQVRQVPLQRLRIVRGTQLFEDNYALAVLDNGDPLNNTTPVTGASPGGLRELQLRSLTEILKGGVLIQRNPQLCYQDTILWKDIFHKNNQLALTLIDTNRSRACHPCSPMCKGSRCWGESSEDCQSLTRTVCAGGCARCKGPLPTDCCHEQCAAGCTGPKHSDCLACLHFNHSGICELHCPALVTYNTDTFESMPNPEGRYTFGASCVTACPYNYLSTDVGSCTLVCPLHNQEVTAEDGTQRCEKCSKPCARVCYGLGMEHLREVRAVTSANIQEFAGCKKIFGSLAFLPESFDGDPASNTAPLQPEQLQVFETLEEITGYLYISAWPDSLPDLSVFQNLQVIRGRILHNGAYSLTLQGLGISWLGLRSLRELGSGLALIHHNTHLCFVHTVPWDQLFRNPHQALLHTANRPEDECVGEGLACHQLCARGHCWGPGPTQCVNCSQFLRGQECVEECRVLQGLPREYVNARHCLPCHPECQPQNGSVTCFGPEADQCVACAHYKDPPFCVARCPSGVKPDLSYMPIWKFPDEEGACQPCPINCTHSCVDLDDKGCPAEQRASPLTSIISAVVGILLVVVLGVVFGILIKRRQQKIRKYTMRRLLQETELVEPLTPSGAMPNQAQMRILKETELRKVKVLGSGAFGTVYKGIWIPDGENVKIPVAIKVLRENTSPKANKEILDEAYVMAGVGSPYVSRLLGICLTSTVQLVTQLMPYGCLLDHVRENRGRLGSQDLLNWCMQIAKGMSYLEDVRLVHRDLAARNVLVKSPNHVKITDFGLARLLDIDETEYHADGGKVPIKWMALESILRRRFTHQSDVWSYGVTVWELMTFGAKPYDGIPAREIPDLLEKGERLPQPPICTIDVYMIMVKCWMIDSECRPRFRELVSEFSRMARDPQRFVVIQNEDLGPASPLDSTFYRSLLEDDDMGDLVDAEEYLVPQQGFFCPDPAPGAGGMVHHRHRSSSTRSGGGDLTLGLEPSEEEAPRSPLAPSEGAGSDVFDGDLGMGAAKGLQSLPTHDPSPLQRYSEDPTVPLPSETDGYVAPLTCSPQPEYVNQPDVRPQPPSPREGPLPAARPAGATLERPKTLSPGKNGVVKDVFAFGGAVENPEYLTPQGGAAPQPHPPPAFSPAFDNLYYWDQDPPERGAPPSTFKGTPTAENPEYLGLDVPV

[20] = biological target: Hepatocyte growth factor receptor (Homo sapiens, UniProt P08581); experiment: Inhibition of N-terminal His6-tagged recombinant human c-Met (974 residues) expressed in insect Sf21 cells using poly(Glu,Tyr)4:1 as substrate incubated for 60 mins by ELISA
[21] = biological target: Vascular endothelial growth factor receptor 1 (Homo sapiens, UniProt P17948); experiment: Inhibition of N-terminal GST-tagged recombinant human FLT1 (783 residues) expressed in insect Sf21 cells using poly(Glu,Tyr)4:1 as substrate incubated for 60 mins by ELISA
[22] = biological target: Mast/stem cell growth factor receptor Kit (Homo sapiens, UniProt P10721); experiment: Inhibition of N-terminal GST-tagged recombinant human c-Kit (544 residues) expressed in insect Sf21 cells using poly(Glu,Tyr)4:1 as substrate incubated for 60 mins by ELISA
[23] = Antitumor activity against mouse NIH/3T3 cells expressing EML4-ALK L1196M mutant xenografted in nude mouse assessed as tumor growth inhibition at 20 mg/kg, po qd administered for 10 days; format: functional; conditions: NIH3T3, po, 240 h, read-out: TGI
NIH3T3 [24] = experiment: Antitumor activity against mouse NIH/3T3 cells expressing EML4-ALK L1196M mutant xenografted in nude mouse assessed as tumor stasis at 40 mg/kg, po qd administered for 10 days; format: functional, organism-based
NIH3T3 [25] = experiment: Antitumor activity against mouse NIH/3T3 cells expressing wild type EML4-ALK xenografted in nude mouse assessed as partial tumor regression at 20 to 40 mg/kg, po qd administered for 10 days; format: functional, organism-based
[26] = biological target: T1, Proto-oncogene tyrosine-protein kinase receptor Ret; experiment: Inhibition of RET (unknown origin) in mouse BaF3/CCDC6-RET cells assessed as suppression of AKT phosphorylation at S473 residue after 1 hr by Western blot analysis; format: cell-based
[27] = biological target: Vascular endothelial growth factor receptor 2 (Homo sapiens, UniProt P35968); experiment: Inhibition of N-terminal His6-tagged recombinant human KDR (790 residues) expressed in insect Sf21 cells using poly(Glu,Tyr)4:1 as substrate incubated for 60 mins by ELISA
[28] = biological target: Macrophage-stimulating protein receptor (Homo sapiens, UniProt Q04912); experiment: Inhibition of N-terminal His6-tagged recombinant human Ron (983 residues) expressed in insect Sf21 cells using poly(Glu,Tyr)4:1 as substrate incubated for 60 mins by ELISA
[29] = Antitumor activity against mouse NIH/3T3 cells expressing EML4-ALK L1196M mutant xenografted in nude mouse assessed as tumor growth inhibition at 40 mg/kg, po qd administered for 10 days; format: functional; conditions: NIH3T3, po, 240 h, read-out: TGI
[30] = biological target: Leukocyte tyrosine kinase receptor (Homo sapiens, UniProt P29376); experiment: Inhibition of recombinant LTK (unknown origin) using poly(Glu,Tyr)4:1 as substrate incubated for 60 mins by ELISA
Sequence of Leukocyte tyrosine kinase receptor (P29376 whole entry): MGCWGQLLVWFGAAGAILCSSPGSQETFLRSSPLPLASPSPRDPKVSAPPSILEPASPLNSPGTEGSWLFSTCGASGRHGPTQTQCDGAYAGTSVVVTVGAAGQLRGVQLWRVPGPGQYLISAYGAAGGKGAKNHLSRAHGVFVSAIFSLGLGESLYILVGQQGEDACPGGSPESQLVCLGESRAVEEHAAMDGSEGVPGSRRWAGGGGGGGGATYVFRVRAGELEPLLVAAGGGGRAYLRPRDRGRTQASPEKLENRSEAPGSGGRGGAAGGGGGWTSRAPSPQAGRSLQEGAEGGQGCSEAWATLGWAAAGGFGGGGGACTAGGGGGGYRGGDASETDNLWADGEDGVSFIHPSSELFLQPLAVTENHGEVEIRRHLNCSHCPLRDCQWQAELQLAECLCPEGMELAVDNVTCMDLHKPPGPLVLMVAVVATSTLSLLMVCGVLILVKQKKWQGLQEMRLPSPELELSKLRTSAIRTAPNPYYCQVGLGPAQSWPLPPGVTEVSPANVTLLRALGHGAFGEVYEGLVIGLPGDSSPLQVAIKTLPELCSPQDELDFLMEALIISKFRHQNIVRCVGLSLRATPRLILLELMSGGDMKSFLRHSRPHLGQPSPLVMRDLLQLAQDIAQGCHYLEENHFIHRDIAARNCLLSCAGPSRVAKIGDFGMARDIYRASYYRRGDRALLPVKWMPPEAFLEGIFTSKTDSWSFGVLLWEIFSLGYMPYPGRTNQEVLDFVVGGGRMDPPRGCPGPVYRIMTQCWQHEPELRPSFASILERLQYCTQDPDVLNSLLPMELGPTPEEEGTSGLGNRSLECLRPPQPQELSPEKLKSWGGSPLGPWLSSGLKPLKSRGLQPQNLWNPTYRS

[31] = biological target: Tyrosine-protein kinase receptor UFO (Homo sapiens, UniProt P30530); experiment: Inhibition of recombinant human AXL using poly(Glu,Tyr)4:1 as substrate incubated for 60 mins by ELISA
Mus musculus = experiment: Toxicity in nude mouse assessed as weight loss at 20 to 40 mg/kg, po qd administered for 10 days; format: organism-based; conditions: in vivo, 240 h
[32] = biological target: Platelet-derived growth factor receptor beta (Homo sapiens, UniProt P09619); experiment: Inhibition of N-terminal His6-tagged recombinant human PDGFRbeta (557 residues) expressed in insect Sf21 cells using poly(Glu,Tyr)4:1 as substrate incubated for 60 mins by ELISA
[33] = biological target: Proto-oncogene tyrosine-protein kinase ROS (Homo sapiens, UniProt P08922); experiment: Inhibition of recombinant ROS1 (unknown origin) using poly(Glu,Tyr)4:1 as substrate incubated for 60 mins by ELISA
[34] = Antitumor activity against mouse NIH/3T3 cells expressing wild type EML4-ALK xenografted in nude mouse assessed as tumor growth inhibition at 20 mg/kg, po qd administered for 10 days; format: functional; conditions: NIH3T3, po, 240 h, read-out: TGI
[35] = biological target: T1, Proto-oncogene tyrosine-protein kinase receptor Ret; experiment: Inhibition of RET (unknown origin) in mouse BaF3/CCDC6-RET cells assessed as suppression of STAT3 phosphorylation at Y705 residue after 1 hr by Western blot analysis; format: cell-based
[36] = Antitumor activity against mouse NIH/3T3 cells expressing wild type EML4-ALK xenografted in nude mouse assessed as tumor growth inhibition at 40 mg/kg, po qd administered for 10 days; format: functional; conditions: NIH3T3, po, 240 h, read-out: TGI
[37] = biological target: Proto-oncogene tyrosine-protein kinase Src (Homo sapiens, UniProt P12931); experiment: Inhibition of recombinant human c-Src expressed in insect Sf9 cells using poly(Glu,Tyr)4:1 as substrate incubated for 60 mins by ELISA
Sequence of Proto-oncogene tyrosine-protein kinase Src (P12931 2-536 limits assumed): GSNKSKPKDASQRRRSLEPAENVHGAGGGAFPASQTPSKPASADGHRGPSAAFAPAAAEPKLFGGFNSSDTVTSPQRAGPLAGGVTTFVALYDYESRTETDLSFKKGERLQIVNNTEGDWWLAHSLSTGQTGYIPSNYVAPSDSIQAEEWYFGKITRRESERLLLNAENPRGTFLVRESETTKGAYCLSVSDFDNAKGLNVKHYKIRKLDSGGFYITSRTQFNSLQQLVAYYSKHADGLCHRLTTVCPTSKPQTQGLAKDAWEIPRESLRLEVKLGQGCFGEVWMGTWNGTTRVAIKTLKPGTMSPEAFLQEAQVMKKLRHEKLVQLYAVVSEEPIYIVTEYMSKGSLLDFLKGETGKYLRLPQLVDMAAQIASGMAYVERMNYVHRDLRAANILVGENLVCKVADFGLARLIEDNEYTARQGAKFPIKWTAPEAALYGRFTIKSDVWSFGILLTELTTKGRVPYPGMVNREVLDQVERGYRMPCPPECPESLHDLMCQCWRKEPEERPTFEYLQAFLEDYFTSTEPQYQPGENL

[38] = biological target: T1, Proto-oncogene tyrosine-protein kinase receptor Ret; experiment: Inhibition of RET (unknown origin) in mouse BaF3/CCDC6-RET cells assessed as suppression of ERK1/2 phosphorylation at T202/Y204 residue after 1 hr by Western blot analysis; format: cell-based
[39] = biological target: Receptor-type tyrosine-protein kinase FLT3 (Homo sapiens, UniProt P36888); experiment: Inhibition of N-terminal GST-tagged recombinant human FLT3 (564 residues) expressed in insect Sf21 cells using poly(Glu,Tyr)4:1 as substrate incubated for 60 mins by ELISA
[40] = biological target: Receptor tyrosine-protein kinase erbB-4 (Homo sapiens, UniProt Q15303); experiment: Inhibition of N-terminal His6-tagged recombinant human ErbB4 (709 to 991 residues) expressed in insect Sf21 cells using poly(Glu,Tyr)4:1 as substrate incubated for 60 mins by ELISA
[41] = biological target: T1, Proto-oncogene tyrosine-protein kinase receptor Ret; experiment: Inhibition of RET (unknown origin) phosphorylation at […] residue in mouse BaF3/CCDC6-RET cells after 1 hr by Western blot analysis; format: cell-based
[42] = biological target: Tyrosine-protein kinase receptor TYRO3 (Homo sapiens, UniProt Q06418); experiment: Inhibition of N-terminal His6-tagged recombinant human TYRO3 (451 residues) expressed in insect Sf21 cells using poly(Glu,Tyr)4:1 as substrate incubated for 60 mins by ELISA

IC50 (cells [1]): 0.0179 µM
IC50 (cells [2]): 0.132 µM
IC50 (cells [3]): 0.0174 µM
IC50 (cells [5]): 0.015 µM
IC50 (cells [7]): 0.0205 µM
IC50 (cells [9]): 0.0323 µM
Compound: CCc1cc2c(cc1N1CCC(N3CCOCC3)CC1)C(C)(C)c1[nH]c3cc(C#N)ccc3c1C2=O [ALECTINIB]
Activity (NIH3T3 [4]): Active
inhibition in vivo at 50 mg/kg (animal or person [6]): 103%
Activity (NIH3T3 [8]): Active
inhibition in vivo at 50 mg/kg (animal or person [10]): 83.5%

IC50 (cells [1]): 0.0229 µM
IC50 [13]: > 1 µM
IC50 [14]: > 1 µM
IC50 [15]: 0.0016 µM
IC50 (cells [2]): 0.196 µM
IC50 [16]: 0.402 µM
IC50 [17]: 0.0278 µM
IC50 (cells [3]): 0.0433 µM
IC50 [18]: 0.35 µM
IC50 [19]: > 1 µM
IC50 [20]: > 1 µM
IC50 [21]: 0.159 µM
IC50 [22]: > 1 µM
inhibition [26]: Dose-dependent effect
IC50 [27]: 0.104 µM
IC50 [28]: 0.0934 µM
IC50 (cells [5]): 0.0448 µM
IC50 [30]: 0.0431 µM
IC50 [31]: 0.17 µM
IC50 [32]: 0.0642 µM
IC50 [33]: > 1 µM
inhibition [35]: Dose-dependent effect
IC50 [37]: 0.0754 µM
IC50 (cells [7]): 0.0483 µM
inhibition [38]: Dose-dependent effect
IC50 [39]: 0.0857 µM
IC50 [40]: 0.213 µM
inhibition [41]: Dose-dependent effect
IC50 [42]: 0.0719 µM
IC50 (cells [9]): 0.0467 µM
Compound: CC1(C)c2cc(C3CCN(CC4CCOCC4)CC3)ccc2C(=O)c2c1[nH]c1cc(C#N)ccc21
Activity (NIH3T3 [11]): Active
Activity (NIH3T3 [12]): Active
inhibition in vivo at 20 mg/kg [23]: 56.9%
Activity (NIH3T3 [24]): Active
Activity (NIH3T3 [25]): Active
inhibition in vivo at 40 mg/kg [29]: 87.3%
Activity (Mus musculus): Non-toxic
inhibition in vivo at 20 mg/kg [34]: 102%
inhibition in vivo at 40 mg/kg [36]: 102%
